Experimental data taken from the supplement of paper PMC11061612.

Columns and labels:
Capivasertib = compound: C1CN(CCC1(C(=O)N[C@@H](CCO)C2=CC=C(C=C2)Cl)N)C3=NC=NC4=C3C=CN4 [Capivasertib]; conditions: max 10 µM
Method in brief: (§1)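 After 24 hours at 37°C and 5% CO2 in 1536-well plates holding 7.5 μl of DMEM/F12 or RPMI with 10% FBS, cancer cell lines were dosed for 72 hours, with final DMSO typically 0.2%. Viability came from CellTiter-Glo 2.0 luminescence, scaled between the means of blank wells and DMSO wells. A non-linear mixed effects model fitted a two-parameter logistic curve to each dose response to give the single-agent IC50.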

AZD1775 = compound: C=CCn1c(=O)c2cnc(Nc3ccc(N4CCN(C)CC4)cc3)nc2n1-c1cccc(C(C)(C)O)n1 [AZD1775]; conditions: max 3 µM
Method in brief: as §1

Trametinib = compound: CC(=O)Nc1cccc(-n2c(=O)n(C3CC3)c(=O)c3c(Nc4ccc(I)cc4F)n(C)c(=O)c(C)c32)c1 [Trametinib]; conditions: max 1 µM
Method in brief: as §1

Palbociclib = compound: CC(=O)c1c(C)c2cnc(Nc3ccc(N4CCNCC4)cn3)nc2n(C2CCCC2)c1=O [Palbociclib]; conditions: max 10 µM
Method in brief: as §1

AZD1390 = compound: CC(C)n1c(=O)n(C)c2cnc3cc(F)c(-c4ccc(OCCCN5CCCCC5)nc4)cc3c21 [AZD1390]; conditions: max 0.3 µM
Method in brief: as §1

Venetoclax = compound: CC1(C)CCC(CN2CCN(c3ccc(C(=O)NS(=O)(=O)c4ccc(NCC5CCOCC5)c([N+](=O)[O-])c4)c(Oc4cnc5[nH]ccc5c4)c3)CC2)=C(c2ccc(Cl)cc2)C1 [Venetoclax]; conditions: max 1 µM
Method in brief: as §1

Dasatinib = compound: CC1=C(C(=CC=C1)Cl)NC(=O)C2=CN=C(S2)NC3=CC(=NC(=N3)C)N4CCN(CC4)CCO [Dasatinib]; conditions: max 2 µM
Method in brief: as §1

SG3199 = compound: CC1=CN2[C@@H](C1)C=NC3=CC(=C(C=C3C2=O)OC)OCCCCCOC4=C(C=C5C(=C4)N=C[C@@H]6CC(=CN6C5=O)C)OC [SG3199]; conditions: max 0.001 µM
Method in brief: as §1

AZD2811 = compound: CCN(CCO)CCCOc1ccc2c(Nc3cc(CC(=O)Nc4cccc(F)c4)[nH]n3)ncnc2c1 [AZD2811]; conditions: max 1 µM
Method in brief: as §1

SN-38 = compound: CCc1c2c(nc3ccc(O)cc13)-c1cc3c(c(=O)n1C2)COC(=O)[C@]3(O)CC [SN-38]; conditions: max 0.3 µM
Method in brief: as §1

AZD0156 = compound: CN(C)CCCOc1ccc(-c2ccc3ncc4c(c3c2)n(C2CCOCC2)c(=O)n4C)cn1 [AZD0156]; conditions: max 3 µM
Method in brief: as §1

AZD4320 = compound: CN(CC[C@H](CSC1=CC=CC=C1)NC2=C(C=C(C=C2)S(=O)(=O)NC(=O)C3=CC=C(C=C3)N4CCC(CC4)[C@H](C5=CC=CC=C5C6=CC=C(C=C6)Cl)O)S(=O)(=O)C(F)(F)F)CCO [AZD4320]; conditions: max 1 µM
Method in brief: as §1

Alisertib = compound: COc1cc(Nc2ncc3c(n2)-c2ccc(Cl)cc2C(c2c(F)cccc2OC)=NC3)ccc1C(=O)O [Alisertib]; conditions: max 10 µM
Method in brief: as §1

Gefitinib = compound: COc1cc2ncnc(Nc3ccc(F)c(Cl)c3)c2cc1OCCCN1CCOCC1 [Gefitinib]; conditions: max 10 µM
Method in brief: as §1

Prexasertib = compound: COc1cccc(OCCCN)c1-c1cc(Nc2cnc(C#N)cn2)n[nH]1 [Prexasertib]; conditions: max 1 µM
Method in brief: as §1

Doxorubicin = compound: COc1cccc2c1C(=O)c1c(O)c3c(c(O)c1C2=O)C[C@@](O)(C(=O)CO)C[C@@H]3O[C@H]1C[C@H](N)[C@H](O)[C@H](C)O1 [Doxorubicin]; conditions: max 1 µM
Method in brief: as §1

AZD5153 = compound: COc1nnc2ccc(N3CCC(c4ccc(OCCN5CCN(C)C(=O)[C@H]5C)cc4)CC3)nn12 [AZD5153]; conditions: max 1 µM
Method in brief: as §1

Lapatinib = compound: CS(=O)(=O)CCNCc1ccc(-c2ccc3ncnc(Nc4ccc(OCc5cccc(F)c5)c(Cl)c4)c3c2)o1 [Lapatinib]; conditions: max 10 µM
Method in brief: as §1

AZD8186 = compound: C[C@@H](Nc1cc(F)cc(F)c1)c1cc(C(=O)N(C)C)cc2c(=O)cc(N3CCOCC3)oc12 [AZD8186]; conditions: max 3 µM
Method in brief: as §1

Crizotinib = compound: C[C@@H](Oc1cc(-c2cnn(C3CCNCC3)c2)cnc1N)c1c(Cl)ccc(F)c1Cl [Crizotinib]; conditions: max 10 µM
Method in brief: as §1

Savolitinib = compound: C[C@@H](c1ccc2nccn2c1)n1nnc2ncc(-c3cnn(C)c3)nc21 [Savolitinib]; conditions: max 1 µM
Method in brief: as §1

AZD6738 = compound: C[C@@H]1COCCN1C2=NC(=NC(=C2)C3(CC3)[S@](=N)(=O)C)C4=C5C=CNC5=NC=C4 [AZD6738]; conditions: max 10 µM
Method in brief: as §1

AZD5991 = compound: Cc1c2c(nn1C)CSCc1cc(n(C)n1)CSc1cc(c3ccccc3c1)OCCCc1c(C(=O)O)n(C)c3c-2c(Cl)ccc13 [AZD5991]; conditions: max 1 µM
Method in brief: as §1

AZD7648 = compound: Cc1cc2ncnn2cc1Nc1ncc2c(n1)n(C1CCOCC1)c(=O)n2C [AZD7648]; conditions: max 10 µM
Method in brief: as §1

Taselisib = compound: Cc1nc(-c2cn3c(n2)-c2ccc(-c4cnn(C(C)(C)C(N)=O)c4)cc2OCC3)n(C(C)C)n1 [Taselisib]; conditions: max 10 µM
Method in brief: as §1

Selumetinib = compound: Cn1cnc2c(F)c(Nc3ccc(Br)cc3Cl)c(C(=O)NOCCO)cc21 [Selumetinib]; conditions: max 10 µM
Method in brief: as §1

Olaparib = compound: O=C(c1cc(Cc2n[nH]c(=O)c3ccccc23)ccc1F)N1CCN(C(=O)C2CC2)CC1 [Olaparib]; conditions: max 10 µM
Method in brief: as §1

Cell Line: ATN-1 (T-Lymphoblastic Leukemia)
- IC50, cell viability 72 h (Capivasertib): 2.02 µM
- IC50, cell viability 72 h (AZD1775): 0.0601 µM
- IC50, cell viability 72 h (Trametinib): > 1 µM
- IC50, cell viability 72 h (Palbociclib): 5.84 µM
- IC50, cell viability 72 h (AZD1390): > 0.3 µM
- IC50, cell viability 72 h (Venetoclax): > 1 µM
- IC50, cell viability 72 h (Dasatinib): 1.7 µM
- IC50, cell viability 72 h (SG3199): > 0.001 µM
- IC50, cell viability 72 h (AZD2811): 0.0188 µM
- IC50, cell viability 72 h (SN-38): 0.00553 µM
- IC50, cell viability 72 h (AZD0156): > 3 µM
- IC50, cell viability 72 h (AZD4320): 0.13 µM
- IC50, cell viability 72 h (Alisertib): 0.0401 µM
- IC50, cell viability 72 h (Gefitinib): > 10 µM
- IC50, cell viability 72 h (Prexasertib): 0.00209 µM
- IC50, cell viability 72 h (Doxorubicin): 0.0454 µM
- IC50, cell viability 72 h (AZD5153): 0.482 µM
- IC50, cell viability 72 h (Lapatinib): > 10 µM
- IC50, cell viability 72 h (AZD8186): 2.2 µM
- IC50, cell viability 72 h (Crizotinib): 1.41 µM
- IC50, cell viability 72 h (Savolitinib): > 1 µM
- IC50, cell viability 72 h (AZD6738): 0.664 µM
- IC50, cell viability 72 h (AZD5991): 0.109 µM
- IC50, cell viability 72 h (AZD7648): > 10 µM
- IC50, cell viability 72 h (Taselisib): 0.083 µM
- IC50, cell viability 72 h (Selumetinib): > 10 µM
- IC50, cell viability 72 h (Olaparib): > 10 µM

Cell Line: BT-474 (Breast Carcinoma)
- IC50, cell viability 72 h (Capivasertib): > 10 µM
- IC50, cell viability 72 h (AZD1775): > 3 µM
- IC50, cell viability 72 h (Trametinib): > 1 µM
- IC50, cell viability 72 h (Palbociclib): > 10 µM
- IC50, cell viability 72 h (AZD1390): > 0.3 µM
- IC50, cell viability 72 h (Venetoclax): > 1 µM
- IC50, cell viability 72 h (Dasatinib): > 2 µM
- IC50, cell viability 72 h (SG3199): > 0.001 µM
- IC50, cell viability 72 h (AZD2811): > 1 µM
- IC50, cell viability 72 h (SN-38): > 0.3 µM
- IC50, cell viability 72 h (AZD0156): > 3 µM
- IC50, cell viability 72 h (AZD4320): > 1 µM
- IC50, cell viability 72 h (Alisertib): > 10 µM
- IC50, cell viability 72 h (Gefitinib): > 10 µM
- IC50, cell viability 72 h (Prexasertib): > 1 µM
- IC50, cell viability 72 h (Doxorubicin): > 1 µM
- IC50, cell viability 72 h (AZD5153): > 1 µM
- IC50, cell viability 72 h (Lapatinib): 2.54 µM
- IC50, cell viability 72 h (AZD8186): > 3 µM
- IC50, cell viability 72 h (Crizotinib): > 10 µM
- IC50, cell viability 72 h (Savolitinib): > 1 µM
- IC50, cell viability 72 h (AZD6738): > 10 µM
- IC50, cell viability 72 h (AZD5991): > 1 µM
- IC50, cell viability 72 h (AZD7648): > 10 µM
- IC50, cell viability 72 h (Taselisib): 0.779 µM
- IC50, cell viability 72 h (Selumetinib): > 10 µM
- IC50, cell viability 72 h (Olaparib): > 10 µM
